The values below come from patent US7312330B2, “Bicycloheteroarylamine compounds as ion channel ligands and uses thereof” (Renovis, Inc., priority 2003, dated 2007).

By IC50 is commonly meant the concentration needed to halve the response being measured.

SMILES strings stand for the structures.

The assay addresses hVR1 (Homo sapiens, UniProt Q8NER1). Kind of assay: Calcium imaging assay (Fura2) of VR1 antagonists, proton stimulation. It is filed as cell-based. As to conditions: HEK 293 cells expressing hVR1; for IC50: calcium ion influx induced by proton stimulation; for % Inhibition @ 1 μM: calcium ion influx induced by proton stimulation (pH 5.7). From the text:
VR1 protein is a heat-gated cation channel that exchanges about 10 calcium ions for every sodium ion resulting in neuronal membrane depolarization and elevated intracellular calcium ion levels. Therefore the functional activity of compounds at the VR1 receptor may be determined by measuring changes in intracellular calcium levels in 293 cells expressing capsaicin-insensitive VR1 receptor variants. A dual wavelength ratiometric dye, Fura2, was used as an indicator of relative levels of calcium ions in a 96 well format using a bench top scanning fluorometer with integrated fluidics and temperature control (Flex Station, Molecular Devices).
A dual wavelength ratiometric dye, Fura2, was used as an indicator of relative levels of [Ca2+] in a 96 well format using a bench top scanning fluorometer with integrated fluidics and temperature control (Flex Station, Molecular Devices).
HEK 293 cells expressing hVR1 were grown on PDL coated 96-well black-walled plates, in the presence of a DMEM medium containing 5% Penstrep, 5% Glutamax, 200 ug/mL Hygromycin, 5 μg/mL Blasticide and 10% heat inactivated FBS. Prior to assay, the cells were loaded with 5 μg/mL Fura2 in normal saline solution at 37° C. for 40 minutes. Cells were then washed with normal saline to remove the dye.
The assay consists of two stages; a pre-treatment phase followed by a treatment phase. In the pretreatment phase, 50 μl of a compound solution was added to the cells. Immediately following, 50 μl of the test compound in the presence of agonist (a saline solution plus 10 mM citric acid bufferd to pH 5.7 with HCl) was added. Fura2 was excited at […] to indicate relative calcium concentration. Changes in wavelength measurements were made throughout the course of the experiment in 4 second intervals over a period of 3 minutes. The fluorescence ratio from the excitations at […] was recorded for analysis. Responses were measured as peak fluorescence ratio after compound-agonist addition minus baseline fluorescence ratio prior to treatment and were calculated for each concentration tested using the SoftMaxPro software. Data was expressed as percentage inhibition calculated as follows: […]
A dose response curve was then determined, from which the ID50 of each compound was calculated.

hVR1, sequence (Q8NER1 whole entry): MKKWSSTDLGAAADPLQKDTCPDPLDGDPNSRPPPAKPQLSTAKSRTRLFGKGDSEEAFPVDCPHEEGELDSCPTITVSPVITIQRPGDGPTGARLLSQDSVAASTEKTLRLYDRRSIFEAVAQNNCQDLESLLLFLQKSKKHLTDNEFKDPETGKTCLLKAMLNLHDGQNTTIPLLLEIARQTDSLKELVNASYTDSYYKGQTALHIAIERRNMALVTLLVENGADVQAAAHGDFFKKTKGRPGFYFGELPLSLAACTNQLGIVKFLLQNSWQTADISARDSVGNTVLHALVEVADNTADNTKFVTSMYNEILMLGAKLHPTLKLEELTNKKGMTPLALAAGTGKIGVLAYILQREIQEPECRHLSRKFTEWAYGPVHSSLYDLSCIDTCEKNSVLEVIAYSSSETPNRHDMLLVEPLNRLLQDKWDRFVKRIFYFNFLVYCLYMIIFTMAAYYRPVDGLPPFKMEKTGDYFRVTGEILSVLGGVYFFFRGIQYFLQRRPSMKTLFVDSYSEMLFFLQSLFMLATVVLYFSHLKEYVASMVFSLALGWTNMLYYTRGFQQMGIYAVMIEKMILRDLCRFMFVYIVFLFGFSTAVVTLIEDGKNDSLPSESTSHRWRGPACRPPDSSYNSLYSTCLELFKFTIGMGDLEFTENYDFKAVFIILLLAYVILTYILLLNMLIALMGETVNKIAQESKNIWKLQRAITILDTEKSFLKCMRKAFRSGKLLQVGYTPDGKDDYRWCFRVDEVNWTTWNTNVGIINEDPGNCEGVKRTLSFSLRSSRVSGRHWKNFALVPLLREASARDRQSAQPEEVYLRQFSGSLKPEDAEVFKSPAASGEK

Take `CSc1nc2c(c(Nc3ccc(C(F)(F)F)cc3)n1)CCN(c1ncccc1Cl)C2` [Example 24, [7-(3-Chloro-pyridin-2-yl)-2-methylsulfanyl-5,6,7,8-tetrahydro-pyrido[3,4-d]pyrimidin-4-yl]-(4-trifluoromethyl-phenyl)-amine]: the IC50 was 101 to 500 nM.
For `CC(=O)N1CC(C)(C)c2ccc(Nc3ncnc4c3CCN(c3ncccc3Cl)C4)cc21` [Example 68, 1-(6-(7-(3-Chloropyridin-2-yl)-5,6,7,8-tetrahydropyrido[3,4-d]pyrimidin-4-ylamino)-3,3-dimethylindolin-1-yl)ethanone], the “% Inhibition @ 1 μM” value was “+++ (compound exhibited 51-75% inhibition of calcium ion influx induced by proton stimulation)” and the IC50 lay within 501 to 1000 nM.
For `CC1(C)C(=O)NC(=O)c2cc(Nc3ncnc4c3CCN(c3ncccc3Cl)C4)ccc21` [Example 58, 7-(7-(3-Chloropyridin-2-yl)-5,6,7,8-tetrahydropyrido[3,4-d]pyrimidin-4-ylamino)-4,4-dimethylisoquinoline-1,3(2H,4H)-dione], the IC50 was > 1000 nM.
As to `c1ccc(CN2CCc3c(ncnc3Nc3cnc4ccccc4c3)C2)cc1` [Example 38, 7-Benzyl-5,6,7,8-tetrahydro-N-(quinolin-3-yl)pyrido[3,4-d]pyrimidin-4-amine], the 50% inhibitory concentration (IC50) lay within 101 to 500 nM.
Same read-out and setting: the same measure for `CC1(C)CNCc2cc(Nc3ncnc4c3CCN(c3ncccc3Cl)C4)ccc21` [Example 62, 7-(3-chloropyridin-2-yl)-5,6,7,8-tetrahydro-N-(1,2,3,4-tetrahydro-4,4-dimethylisoquinolin-7-yl)pyrido[3,4-d]pyrimidin-4-amine]: > 1000 nM.
In the case of `FC(F)(F)c1ccnc(N2CCc3c(ncnc3Nc3ccc4c(c3)OCCO4)C2)c1` [Example 71, 7-(4-(Trifluoromethyl)pyridin-2-yl)-5,6,7,8-tetrahydro-N-(2,3-dihydrobenzo[b][1,4]dioxin-7-yl)pyrido[3,4-d]pyrimidin-4-amine], the “% Inhibition @ 1 μM” value is recorded as “+ (compound exhibited 0-25% inhibition of calcium ion influx induced by proton stimulation)” and the IC50 is > 1000 nM.
On the same counts, the results for `Oc1nc2c(c(Nc3ccc(C(F)(F)F)cc3)n1)CCN(c1ncccc1Cl)C2` [Example 57, 4-(4-(Trifluoromethyl)phenylamino)-7-(3-chloropyridin-2-yl)-5,6,7,8-tetrahydropyrido[3,4-d]pyrimidin-2-ol] are “+ (compound exhibited 0-25% inhibition of calcium ion influx induced by proton stimulation)” and > 1000 nM.
In the case of `COCc1nc2c(c(Nc3ccc(C(C)(C)C)cc3)n1)CCN(c1ncccc1C(F)(F)F)C2.Cl` [Example 6, (4-tert-Butyl-phenyl)-[2-methoxymethyl-7-(3-trifluoromethyl-pyridin-2-yl)-5,6,7,8-tetrahydro-pyrido[3,4-d]pyrimidin-4-yl]-amine hydrochloride], the “% Inhibition @ 1 μM” value is given as “++++ (compound exhibited 76% or greater inhibition of calcium ion influx induced by proton stimulation)” and the IC50 was < 100 nM.
`O=S(=O)(c1ccc(Nc2ncnc3c2CCN(c2ncccc2C(F)(F)F)C3)cc1)C(F)(F)F` [Example 76, 7-(3-(trifluoromethyl)pyridin-2-yl)-5,6,7,8-tetrahydro-N-(4-(trifluoromethylsulfonyl)-phenyl)pyrido[3,4-d]pyrimidin-4-amine]: the “% Inhibition @ 1 μM” value is given as “++++ (compound exhibited 76% or greater inhibition of calcium ion influx induced by proton stimulation)” and the IC50 was < 100 nM.
As to `CC(C)S(=O)(=O)c1cccnc1N1CCc2c(ncnc2Nc2ccc(C(F)(F)F)cc2)C1` [Example 16, N-(4-(Trifluoromethyl)phenyl)-5,6,7,8-tetrahydro-7-(3-(isopropylsulfonyl)pyridin-2-yl)pyrido[3,4-d]pyrimidin-4-amine], the IC50 was > 1000 nM.
For `Clc1ccc(Nc2ncnc3c2CCN(c2ncccc2Cl)C3)cc1Cl` [Example 42, N-(3,4-Dichlorophenyl)-7-(3-chloropyridin-2-yl)-5,6,7,8-tetrahydropyrido[3,4-d]pyrimidin-4-amine], the “% Inhibition @ 1 μM” value was “++ (compound exhibited 26-50% inhibition of calcium ion influx induced by proton stimulation)”.
For the molecule `CC(C)(C)c1ccc(Nc2ncnc3c2CCN(c2ncccc2C(F)(F)F)C3)cc1.Cl` [Example 4, N-(4-tert-Butylphenyl)-7-(3-(trifluoromethyl)pyridin-2-yl)-5,6,7,8-tetrahydropyrido[3,4-d]pyrimidin-4-amine hydrochloride], the “% Inhibition @ 1 μM” value is recorded as “++++ (compound exhibited 76% or greater inhibition of calcium ion influx induced by proton stimulation)” and the IC50 is < 100 nM.
In the case of `CN1CCC(C)(C)c2ccc(Nc3ncnc4c3CCN(c3ncccc3Cl)C4)cc21` [Example 60, 7-(3-Chloropyridin-2-yl)-5,6,7,8-tetrahydro-N-(1,2,3,4-tetrahydro-1,4,4-trimethylquinolin-7-yl)pyrido[3,4-d]pyrimidin-4-amine], the IC50 was < 100 nM.
Take `CC(=O)N1Cc2cc(Nc3ncnc4c3CCN(c3ncccc3Cl)C4)ccc2C(C)(C)C1` [Example 61]: the IC50 is > 1000 nM.
Consider `COc1cccc(Nc2ncnc3c2CCN(c2ccc(C(F)(F)F)cn2)C3)c1` [Example 73, 7-(5-(Trifluoromethyl)pyridin-2-yl)-5,6,7,8-tetrahydro-N-(3-methoxyphenyl)pyrido[3,4-d]pyrimidin-4-amine], for which the “% Inhibition @ 1 μM” value was “+ (compound exhibited 0-25% inhibition of calcium ion influx induced by proton stimulation)” and the IC50 was > 1000 nM.
As to `Cc1ccc(N2CCc3c(ncnc3Nc3ccc(C(F)(F)F)cc3)C2)cc1` [Example 47, 7-(p-Tolyl)-N-(4-(trifluoromethyl)phenyl)-5,6,7,8-tetrahydropyrido[3,4-d]pyrimidin-4-amine], the “% Inhibition @ 1 μM” value was “++ (compound exhibited 26-50% inhibition of calcium ion influx induced by proton stimulation)” and the IC50 fell in the range of 501 to 1000 nM.
As to `CC(C)(C)c1ccc(Nc2nc(CN3CCOCC3)nc3c2CCN(c2ncccc2Cl)C3)cc1` [Example 13, (4-tert-Butyl-phenyl)-[7-(3-chloro-pyridin-2-yl)-2-morpholin-4-ylmethyl-5,6,7,8-tetrahydro-pyrido[3,4-d]pyrimidin-4-yl]-amine], the “% Inhibition @ 1 μM” value is “++ (compound exhibited 26-50% inhibition of calcium ion influx induced by proton stimulation)”.
For `FC(F)(F)c1ccc(Nc2ncnc3c2CCN(c2ccccc2)C3)cc1` [Example 44, 7-(Phenyl)-N-(4-(trifluoromethyl)phenyl)-5,6,7,8-tetrahydropyrido[3,4-d]pyrimidin-4-amine], the “% Inhibition @ 1 μM” value is “+ (compound exhibited 0-25% inhibition of calcium ion influx induced by proton stimulation)” and the IC50 was > 1000 nM.
With `FC(F)(F)Oc1ccc(Nc2ncnc3c2CCN(c2ncccc2Cl)C3)cc1` [Example 78, 7-(3-Chloropyridin-2-yl)-5,6,7,8-tetrahydro-N-(4-(trifluoromethoxy)-phenyl)pyrido[3,4-d]pyrimidin-4-amine], the “% Inhibition @ 1 μM” value is given as “++++ (compound exhibited 76% or greater inhibition of calcium ion influx induced by proton stimulation)” and the IC50 was < 100 nM.
For the molecule `CC(C)(C#N)c1ccc(Nc2ncnc3c2CCN(c2ncccc2Cl)C3)cc1` [Example 56, 2-(4-(7-(3-Chloropyridin-2-yl)-5,6,7,8-tetrahydropyrido[3,4-d]pyrimidin-4-ylamino)phenyl)-2-methylpropanenitrile], the “% Inhibition @ 1 μM” value is “++++ (compound exhibited 76% or greater inhibition of calcium ion influx induced by proton stimulation)” and the IC50 is < 100 nM.
On to `CC1(C)C(=O)Nc2cc(Nc3ncnc4c3CCN(c3ncccc3Cl)C4)ccc21` [Example 67, 6-(7-(3-Chloropyridin-2-yl)-5,6,7,8-tetrahydropyrido[3,4-d]pyrimidin-4-ylamino)-3,3-dimethylindolin-2-one], for which the IC50 was > 1000 nM.
For `Clc1cccnc1N1CCc2c(ncnc2NCCOc2ccccc2)C1` [Example 52, 7-(3-Chloropyridin-2-yl)-5,6,7,8-tetrahydro-N-(2-phenoxyethyl)pyrido[3,4-d]pyrimidin-4-amine], the “% Inhibition @ 1 μM” value is on record as “+ (compound exhibited 0-25% inhibition of calcium ion influx induced by proton stimulation)”.
On to `CS(=O)(=O)c1cccnc1N1CCc2c(ncnc2Nc2ccc(C(F)(F)F)nc2)C1` [Example 21], for which the “% Inhibition @ 1 μM” value is on record as “+++ (compound exhibited 51-75% inhibition of calcium ion influx induced by proton stimulation)” and the IC50 was 101 to 500 nM.
On to `COc1nc2c(c(Nc3ccc(C(F)(F)F)cc3)n1)CCN(c1ncccc1Cl)C2` [Example 27, 7-(3-Chloropyridin-2-yl)-N-(4-(trifluoromethyl)phenyl)-5,6,7,8-tetrahydro-2-methoxypyrido[3,4-d]pyrimidin-4-amine], for which the IC50 fell in the range of 101 to 500 nM.
